Test results published in patent US20210177881A1, “MEDICAMENT FOR PREVENTING AND/OR TREATING PAIN AND/OR FEVER, COMPOSITE PRODUCT AND USE THEREOF” (SHANGHAI TONGLIAN PHARMACEUTICAL CO., LTD., priority 2018, published 2021).

Tests used:
[1] = tested on: rats of the LPS fever model; assay: LPS-induced common fever model in rats; type: in vivo, Sprague Dawley rats; details: 30 mg/kg intragastric
Method: Male healthy Sprague Dawley rats (SPF), with a weight of 220-260 g, purchased from Liaoning Changsheng Biotechnology Co., Ltd., with a license number of SCXK (Liao) 2015-0001. […] Sodium chloride injection ([…], 500 mL): (Shijiazhuang No.4 Pharmaceutical Co., Ltd), Batch number: 101217406; 0.9% sodium chloride injection was dissolved and diluted to 1 mg/ml, then packed in EP tubes and stored at −80 DEG C. for later use; immediately before use, it was diluted with 0.9% sodium chloride injection into a sterile injection of 10 μg /ml(100 μg /kg). Male SD rats, with a weight of 220-260 g, were fed adaptively for 3 days, ate food and drank water freely with 12 hours of day-night circle. […] Each group was administrated with the drug based on 1 ml/100 g body weight by intragastric administration.

[2] = tested on: rats of the dry yeast fever model; assay: Common fever model of rats induced by dry yeast; type: in vivo; details: 30 mg/kg intragastric
Method: Male SD rats, with a weight of 220-260 g, were fed adaptively for 3 days, ate food and drank water freely with 12 hours of day-night circle. […] Each group was administrated with the drug based on 1 ml/100 g body weight by intragastric administration. […] Operating steps: except that the LPS in Experiment 1 was replaced by the dry yeast, other experimental operating steps and dosage selections were the same as those in Experiment 1.

mice [3] = assay: Analgesic experiment of writhing method in mice (acetic acid); type: in vivo, Kunming mice; details: 15 mg/kg once on the day of the experiment
[4] = tested on: rats with tibial cancer pain; assay: van Frey mechanical pain threshold in rats with tibial cancer pain (Walker256); type: in vivo, rat
Method: Walker rat breast cancer cells were purchased from Shanghai Institute of Biomedical Engineering. The abdominal cavity of female Wistar rats of 70-80 g was inoculated with 1 ml of ascites tumor (about 2×10^7 cells /ml). After 7-10 days, 5 ml of ascites was extracted and centrifuged for 3 minutes (1300 rpm). After precipitation, washing was performed with 10 ml PBS, and then centrifuged and precipitated again. Then, resuspending was performed with PBS, counting was performed, the cell concentration was adjusted to 1×10^7 cells/ml by PBS and placed in an ice box for later use.
Rats were anesthetized by intraperitoneal injection of 10% chlorate hydrate (4 ml/kg body weight), a skin was prepared at the right knee joint, and the skin was disinfected with 75% alcohol. The knee joint was fixed with the left hand to make the skin on its surface tense. A hole with a depth about 1 cm was drilled along the longitudinal axis of tibia at the medial edge of patellar ligament of the knee joint with a 7# needle. Then, a microsampler with tumor cells (before injection, 1 μl of air, 2 μl of gelatin sponge aqueous solution, 1 μl of air, 4 μl of tumor cells or PBS were inhaled in turn) was used, and 4 μl of tumor cells was injected into the tibia bone marrow cavity; The rats in the control group were injected with the same amount of PBS, and finally all of them were sealed with 2 μl of gel sponge solution. After injection, the needles were kept for 1 minute to prevent the injection from oozing out.
Rats were divided into two groups: a PBS injection control group and a Walker256 model group. The radiation paw withdrawal latency (PWL) was measured before modeling as the basic pain threshold, and the PWL was measured every other day after modeling as the thermal hyperalgesia threshold. At the same time, the mechanical pain caused by von Frey filament was measured. The threshold of mechanical pain was measured before modeling as the basic pain threshold, and the threshold of mechanical allodynia was measured every other day after modeling.
After successfully establishing the model of tibia cancer pain, continuous intragastric administration was performed for 12 days. The rats in the model group were intragastrically given the same volume of normal saline.

mice [5] = assay: Analgesia experiment on a hot plate in mice; type: in vivo, Kunming mice; details: 15 mg/kg
Description: The mouse hot plate method is a classic method for screening analgesics. Its principle is to put the mouse on a hot plate heated to a constant temperature of (55±0.1 DEG C.) in advance, and when the foot of the mouse is stimulated by the hot plate to produce pain, the time required for foot licking is taken as the pain threshold, which is taken as the observation index, and the changes of threshold before and after medication are compared to evaluate the analgesic effect.
Before the experiment, the mice in each group were given intragastric administration. The mice in the blank control group were given the same volume of normal saline every day for 3 consecutive days.
The mice were put on a hot plate pain meter heated to 55 DEG C. in advance, and the time from putting into the hot plate to licking hind feet was recorded with a stopwatch as the pain threshold of the mice. […] It was measured once at 30, 60, 90 and 120 min after administration. After the end of the experiment, the percentage of pain threshold increase was calculated according to the measured average value of pain threshold. The percentage of pain threshold increase %=(an average pain threshold after administration−an average pain threshold before administration)÷the average pain threshold before administration×100%.

[6] = literature reports; cited from earlier work
[7] = 15 mg/kg on the last day, same side

Compound: CC(C)Cc1ccc(C(C)C(=O)O)cc1 (centres unmarked) [ibuprofen, Ibuprofen]
- after administration ΔT ([1]; 1 h): 0.27 ± 0.27 °C
- after administration ΔT ([1]; 2 h): 0.33 ± 0.43 °C
- after administration ΔT ([1]; 4 h): 0.34 ± 0.38 °C
- after administration ΔT ([1]; 6 h): 1.23 ± 0.24 °C
- after administration ΔT ([1]; 8 h): 1.32 ± 0.24 °C
- after administration ΔT ([1]; 10 h): 1.23 ± 0.39 °C
- after administration ΔT ([2]; 1 h): 0.26 ± 0.26 °C
- after administration ΔT ([2]; 2 h): 0.40 ± 0.31 °C
- after administration ΔT ([2]; 4 h): 0.54 ± 0.38 °C

Compound: CN1CC[C@]23c4c5ccc(O)c4O[C@H]2[C@@H](O)C=C[C@H]3[C@H]1C5.Cl [positive control, morphine hydrochloride]
- analgesic rate (mice [3]): 45.83%
- times of writhing (mice [3]): 30.17 ± 6.14 n
- analgesic rate, opposite side ([4]; 15 mg/kg on the last day): 133.3%
- van Frey mechanical pain threshold, opposite side ([4]; 15 mg/kg on the last day): 6.3 ± 0.5 g
- analgesic rate, same side [4, 7]: 205.5%
- van Frey mechanical pain threshold, same side [4, 7]: 5.5 ± 0.2 g
- analgesic rate, opposite side ([4]; 80 mg/kg intragastric, 12 days): 125.9%
- van Frey mechanical pain threshold, opposite side ([4]; 80 mg/kg intragastric, 12 days): 6.1 ± 0.2 g
- van Frey mechanical pain threshold, same side ([4]; 80 mg/kg intragastric, 12 days, same side): 5.2 ± 0.6 g
- Percentage of pain threshold increase (mice [5]; 30 min): 68.11%
- Percentage of pain threshold increase (mice [5]; 60 min): 54.01%
- Percentage of pain threshold increase (mice [5]; 90 min): 51.90%
- Percentage of pain threshold increase (mice [5]; 120 min): 38.17%

Compound: spiramycin
- absolute oral bioavailability [6]: 30-40%
